Key:
Format in all cases: cell-based
[1] = target: T1, Ba/F3 FLT3 (ITD) (Homo sapiens, UniProt P36888, cells depend on it, form not given); assay: Ba/F3 cell growth inhibition (CellTiter-Glo, 72 hours); conditions: read-out: Ba/F3 GI50s (μM) FLT3 (ITD)
T1 sequence (P36888 1-993): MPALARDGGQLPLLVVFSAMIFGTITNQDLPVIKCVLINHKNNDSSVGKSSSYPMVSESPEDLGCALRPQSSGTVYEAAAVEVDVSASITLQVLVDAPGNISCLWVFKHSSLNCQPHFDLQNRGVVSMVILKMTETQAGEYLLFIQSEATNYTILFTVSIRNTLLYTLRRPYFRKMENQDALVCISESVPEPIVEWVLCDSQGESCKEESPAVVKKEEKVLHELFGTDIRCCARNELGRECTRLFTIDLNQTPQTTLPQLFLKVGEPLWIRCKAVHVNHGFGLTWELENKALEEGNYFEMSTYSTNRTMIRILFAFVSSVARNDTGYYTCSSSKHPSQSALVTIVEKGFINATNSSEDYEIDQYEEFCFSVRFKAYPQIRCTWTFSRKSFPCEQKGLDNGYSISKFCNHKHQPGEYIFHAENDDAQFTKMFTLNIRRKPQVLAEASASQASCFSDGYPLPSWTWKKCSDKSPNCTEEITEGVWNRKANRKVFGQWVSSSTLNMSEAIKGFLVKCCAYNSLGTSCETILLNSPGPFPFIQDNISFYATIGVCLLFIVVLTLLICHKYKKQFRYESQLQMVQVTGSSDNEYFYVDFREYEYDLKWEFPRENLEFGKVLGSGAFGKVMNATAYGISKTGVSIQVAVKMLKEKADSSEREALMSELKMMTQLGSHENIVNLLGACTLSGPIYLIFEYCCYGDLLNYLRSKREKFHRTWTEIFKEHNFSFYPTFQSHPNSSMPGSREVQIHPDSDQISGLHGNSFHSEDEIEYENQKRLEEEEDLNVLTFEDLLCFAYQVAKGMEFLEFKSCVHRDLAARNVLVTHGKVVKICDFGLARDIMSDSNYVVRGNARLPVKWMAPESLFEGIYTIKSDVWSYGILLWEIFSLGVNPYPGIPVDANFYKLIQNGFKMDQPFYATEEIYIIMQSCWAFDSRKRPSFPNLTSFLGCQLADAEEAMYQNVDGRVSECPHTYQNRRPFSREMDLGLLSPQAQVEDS
Procedure: (§1) Seeding 3000 cells per well in a 96-well plate. After cell stabilization, treat the cells with compounds diluted in 0.500 DMSO at a ⅓ serial dilution and culture for 72 hours. Following treatment with CellTiter-Glo, luminescence is produced only in the presence of ATP, as luciferase degrades luciferin. Luminescence values were measured using Envision (PerkinElmer). Based on the measured luminescence values, the concentration of compounds causing cell death was calculated to determine the GI50 value.
(§2) The activity values were categorized into three levels. • A: IC50<1 μM • B: 1 μM≤IC50<10 μM, • C: IC50≥10 μM

[2] = tested on: Ba/F3 parental; assay: as above; conditions: Mus musculus, BaF3, Ba/F3 parental cells, read-out: Ba/F3 GI50s (μM) parental
Procedure: as §1, §2

[3] = tested on: H1975; assay: Cancer cell growth inhibition (CellTiter-Glo, 72 hours); conditions: Homo sapiens, NCI-H1975, H1975 cells, read-out: GI50s (μM) H1975
Procedure: as §1, with “0.5%” for “0.500”
(§3) The activity values were categorized into three levels • A: IC50<1 μM • B: 1 μM≤IC50<10 μM, • C: IC50≥10 μM

[4] = tested on: MDA-MB-231; assay: as above; conditions: Homo sapiens, MDA-MB-231 cells, read-out: GI50s (μM) MDA-MB-231
Procedure: as §1, with “0.5%” for “0.500”
as §3

[5] = tested on: colo205; assay: as above; conditions: Homo sapiens, COLO 205, colo205 cells, read-out: GI50s (μM) colo205
Procedure: as §1, with “0.5%” for “0.500”
as §3

[6] = tested on: H23; assay: as above; conditions: Homo sapiens, NCI-H23, H23 cells, read-out: GI50s (μM) H23
Procedure: as §1, with “0.5%” for “0.500”
as §3

[7] = tested on: H358; assay: as above; conditions: Homo sapiens, NCI-H358, H358 cells, read-out: GI50s (μM) H358
Procedure: as §1, with “0.5%” for “0.500”
as §3

[8] = tested on: HCT116; assay: as above; conditions: Homo sapiens, HCT-116, HCT116 cells, read-out: GI50s (μM) HCT116
Procedure: as §1, with “0.5%” for “0.500”
as §3

Compound	GI50 [1]	IC50 [3]	IC50 [4]	IC50 [5]	IC50 [6]	IC50 [7]	IC50 [8]	IC50 [2]
O=C1CCCCCCOc2ccc(cc2)-c2ccc3cnc(nn23)Nc2ccc(cc2)N2CCN1CC2 [Example 24, (Z)-13-oxa-3-aza-2(7,2)-pyrrolo[2,1-f][1,2,4]triazina-5(1,4)-piperazina-1,4(1,4)-dibenzenacyclotridecaphan-6-one]	1 to 10 µM	1 to 10 µM	≥ 10 µM	1 to 10 µM	1 to 10 µM	1 to 10 µM	1 to 10 µM	1 to 10 µM
O=C1CCCCCCOc2ccc(cc2F)-c2ccc3cnc(nn23)Nc2ccc(cc2)OCCCN1 [Example 20, (Z)-13-fluoro-5,17-dioxa-3,9-diaza-2(7,2)-pyrrolo[2,1-f][1,2,4]triazina-1,4(1,4)-dibenzenacycloheptadecaphan-10-one]	1 to 10 µM	≥ 10 µM	≥ 10 µM	≥ 10 µM	≥ 10 µM	≥ 10 µM	≥ 10 µM	≥ 10 µM
COc1cccc(NC(=O)N2CCCn3cc(cn3)Nc3ncc4ccc(n4n3)-c3ccc(cc3)OCC2)c1 [Example 7, (2^1Z,4^4E)-N-(3-methoxyphenyl)-4^1H-11-oxa-3,8-diaza-2(7,2)-pyrrolo[2,1-f][1,2,4]triazina-4(4,1)-pyrazola-1(1,4)-benzenecycloundecaphane-8-carboxamide]	< 1 µM	1 to 10 µM	≥ 10 µM	≥ 10 µM	1 to 10 µM	1 to 10 µM	1 to 10 µM	≥ 10 µM
CN1CCCn2cc(cn2)Nc2ncc3ccc(n3n2)-c2ccc(cc2)OCC1 [Example 2]	< 1 µM	1 to 10 µM	≥ 10 µM	1 to 10 µM	< 1 µM	< 1 µM	< 1 µM	1 to 10 µM
CC(=O)N1CCCn2cc(cn2)Nc2ncc3ccc(n3n2)-c2ccc(cc2)OCC1 [Example 3, 1-((2^1Z,4^4E)-4^1H-11-oxa-3,8-diaza-2(7,2)-pyrrolo[2,1-f1][1,2,4]triazina-4(4,1)-pyrazola-1(1,4)-benzenacycloundecaphane-8-yl)ethan-1-one]	< 1 µM	1 to 10 µM	1 to 10 µM	1 to 10 µM	1 to 10 µM	1 to 10 µM	< 1 µM	1 to 10 µM
O=C1CCCCCCn2cc(cn2)-c2ccc3cnc(nn23)Nc2ccc(cc2)OCCCN1 [Example 17, (1^4Z,2^1Z)-1′H-5-oxa-3,9-diaza-2(7,2)-pyrrolo[2,1-f][1,2,4]triazina-1(4,1)-pyrazola-4(1,4)-benzenacyclohexadecaphan-10-one]	1 to 10 µM	1 to 10 µM	≥ 10 µM	≥ 10 µM	1 to 10 µM	≥ 10 µM	1 to 10 µM	≥ 10 µM

Further lines, with some results ahead:

GI50 [1]	IC50 [3]	IC50 [4]	IC50 [5]	IC50 [6]	IC50 [7]	IC50 [8]	Compound	IC50 [2]
< 1 µM	≥ 10 µM	≥ 10 µM	≥ 10 µM	1 to 10 µM	≥ 10 µM	1 to 10 µM	O=C1CCCCCCOc2ccc(cc2)-c2ccc3cnc(nn23)Nc2cnn(c2)CCCN1 [Example 37, (2^1Z,4^4E)-4^1H-16-oxa-3,8-diaza-2(7,2)-pyrrolo[2,1-f1][1,2,4]triazina-4(4,1)-pyrazola-1(1,4)-benzenacyclohexadecaphan-9-one]	≥ 10 µM
< 1 µM	1 to 10 µM	≥ 10 µM	≥ 10 µM	1 to 10 µM	1 to 10 µM	1 to 10 µM	Cc1ncsc1-c1ccc(CNC(=O)[C@@H]2C[C@@H](O)CN2C(=O)[C@@H](NC(=O)COCCN2CCN(c3ccc(Nc4ncc5ccc(-c6cccc(NS(C)(=O)=O)c6)n5n4)cc3)CC2)C(C)(C)C)cc1 [Example 83, (2S,4R)-1-((S)-3,3-dimethyl-2-(2-(2-(4-(4-((7-(3-(methanesulfonamido)phenyl)pyrrolo[2,1-f][1,2,4]triazin-2-yl)amino)phenyl)piperazin-1-yl)ethoxy)acetaamino)butanoyl)-4-hydroxy-N-(4-(4-methylthiazol-5-yl)benzyl)pyrrolidin-2-carboxamide]	1 to 10 µM
< 1 µM	1 to 10 µM	1 to 10 µM	1 to 10 µM	1 to 10 µM	1 to 10 µM	1 to 10 µM	c1cc2ccc1Nc1ncc3ccc(n3n1)-c1ccc(cc1)OCCNCCCO2 [Example 30, (Z)-5,12-dioxa-3,9-diaza-2(7,2)-pyrrolo[2,1-f][1,2,4]triazina-1,4(1,4)-dibenzenacyclododecaphane]	≥ 10 µM
< 1 µM	≥ 10 µM	1 to 10 µM	≥ 10 µM	1 to 10 µM	1 to 10 µM	≥ 10 µM	O=C1CCCCCCOc2ccc(cc2)-c2ccc3cnc(nn23)Nc2cnn(c2)C2CCN(CCCN1)CC2 [Example 27, (2^1Z,4^4E)-4^1H-17-oxa-3,9-diaza-2(7,2)-pyrrolo[2,1-f1][1,2,4]triazina-5(4,1)-piperidina-4(4,1)-pyrazola-1(1,4)-benzenacycloheptadecaphan-10-one]	1 to 10 µM
< 1 µM	≥ 10 µM	≥ 10 µM	≥ 10 µM	≥ 10 µM	≥ 10 µM	1 to 10 µM	CS(=O)(=O)Nc1cccc(-c2ccc3cnc(Nc4ccc(N5CCN(CCCOc6cccc7c6C(=O)N(C6CCC(=O)NC6=O)C7=O)CC5)cc4)nn23)c1 (stereo not shown) [Example 40]	1 to 10 µM

— patent publication US20250136614A1, “2,7-SUBSTITUTED PYRROLO[2,1-F][1,2,4]TRIAZINE COMPOUND HAVING PROTEIN KINASE INHIBITORY ACTIVITY” (Magicbullettherapeutics Co., Ltd., priority 2021, published 2025)
